Measured values reported in ChEMBL document CHEMBL4387741, “Optimization of novel reversible Bruton's tyrosine kinase inhibitors identified using Tethering-fragment-based screens” (Bioorg Med Chem, 2019).

Key:
[1] = molecular target: Dual specificity protein kinase CLK3 (Homo sapiens) (UniProt P49761); assay: Inhibition of wild-type human full length CLK3 (M1 to R490 residues) expressed in bacterial expression system at 1 uM by Kinomescan method relative to control
[2] = molecular target: ALK tyrosine kinase receptor (Homo sapiens) (UniProt Q9UM73); assay: Inhibition of wild-type human partial length ALK (I1088 to E1409 residues) expressed in mammalian expression system at 1 uM by Kinomescan method relative to control
[3] = molecular target: Serine/threonine-protein kinase SIK3 (Homo sapiens) (UniProt Q9Y2K2); assay: Inhibition of wild-type human partial length QSK (A90 to L395 residues) expressed in mammalian expression system at 1 uM by Kinomescan method relative to control
Chain of Serine/threonine-protein kinase SIK3 (Homo sapiens) (Q9Y2K2 whole entry, looked up, the tested form may be a part): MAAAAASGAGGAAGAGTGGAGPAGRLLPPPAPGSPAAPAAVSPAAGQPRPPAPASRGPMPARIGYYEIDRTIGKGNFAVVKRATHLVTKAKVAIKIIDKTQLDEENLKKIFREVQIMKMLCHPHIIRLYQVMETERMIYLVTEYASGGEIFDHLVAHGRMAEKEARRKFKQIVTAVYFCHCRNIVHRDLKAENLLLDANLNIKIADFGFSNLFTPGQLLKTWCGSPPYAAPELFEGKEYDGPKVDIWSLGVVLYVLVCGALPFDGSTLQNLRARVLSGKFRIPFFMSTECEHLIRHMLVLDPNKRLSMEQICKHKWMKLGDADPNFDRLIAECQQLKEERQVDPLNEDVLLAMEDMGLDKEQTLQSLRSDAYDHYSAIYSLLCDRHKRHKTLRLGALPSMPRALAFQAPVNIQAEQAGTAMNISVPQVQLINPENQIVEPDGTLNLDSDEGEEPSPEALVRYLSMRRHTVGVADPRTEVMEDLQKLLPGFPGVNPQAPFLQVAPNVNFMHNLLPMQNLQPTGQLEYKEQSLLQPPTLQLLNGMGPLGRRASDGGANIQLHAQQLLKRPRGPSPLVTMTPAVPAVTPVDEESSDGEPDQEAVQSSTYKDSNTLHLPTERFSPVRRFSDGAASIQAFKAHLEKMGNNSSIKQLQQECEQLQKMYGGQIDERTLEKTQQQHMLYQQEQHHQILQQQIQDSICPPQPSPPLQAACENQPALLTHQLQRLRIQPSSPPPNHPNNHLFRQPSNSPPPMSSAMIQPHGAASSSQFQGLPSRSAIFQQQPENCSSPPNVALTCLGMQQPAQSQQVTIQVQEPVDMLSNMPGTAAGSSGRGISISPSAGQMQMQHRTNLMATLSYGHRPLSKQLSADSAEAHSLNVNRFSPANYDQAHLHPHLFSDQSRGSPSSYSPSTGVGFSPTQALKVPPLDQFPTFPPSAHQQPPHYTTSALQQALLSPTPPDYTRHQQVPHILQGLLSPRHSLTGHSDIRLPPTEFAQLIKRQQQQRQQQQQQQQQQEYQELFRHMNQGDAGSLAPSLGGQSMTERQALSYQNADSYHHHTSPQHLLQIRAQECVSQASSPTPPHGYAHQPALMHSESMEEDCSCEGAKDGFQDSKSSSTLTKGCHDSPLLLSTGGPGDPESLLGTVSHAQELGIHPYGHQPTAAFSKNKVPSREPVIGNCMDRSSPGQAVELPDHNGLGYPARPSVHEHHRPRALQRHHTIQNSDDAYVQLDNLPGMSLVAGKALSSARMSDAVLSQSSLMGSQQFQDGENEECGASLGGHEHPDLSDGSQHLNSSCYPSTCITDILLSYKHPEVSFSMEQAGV

[4] = molecular target: Tyrosine-protein kinase JAK2 (Homo sapiens) (UniProt O60674); assay: Inhibition of wild-type human partial length JAK2 JH1 catalytic domain (A829 to G1132 residues) expressed in mammalian expression system at 1 uM by Kinomescan method relative to control
Chain of Tyrosine-protein kinase JAK2 (Homo sapiens) (O60674 whole entry, the tested form may be a part): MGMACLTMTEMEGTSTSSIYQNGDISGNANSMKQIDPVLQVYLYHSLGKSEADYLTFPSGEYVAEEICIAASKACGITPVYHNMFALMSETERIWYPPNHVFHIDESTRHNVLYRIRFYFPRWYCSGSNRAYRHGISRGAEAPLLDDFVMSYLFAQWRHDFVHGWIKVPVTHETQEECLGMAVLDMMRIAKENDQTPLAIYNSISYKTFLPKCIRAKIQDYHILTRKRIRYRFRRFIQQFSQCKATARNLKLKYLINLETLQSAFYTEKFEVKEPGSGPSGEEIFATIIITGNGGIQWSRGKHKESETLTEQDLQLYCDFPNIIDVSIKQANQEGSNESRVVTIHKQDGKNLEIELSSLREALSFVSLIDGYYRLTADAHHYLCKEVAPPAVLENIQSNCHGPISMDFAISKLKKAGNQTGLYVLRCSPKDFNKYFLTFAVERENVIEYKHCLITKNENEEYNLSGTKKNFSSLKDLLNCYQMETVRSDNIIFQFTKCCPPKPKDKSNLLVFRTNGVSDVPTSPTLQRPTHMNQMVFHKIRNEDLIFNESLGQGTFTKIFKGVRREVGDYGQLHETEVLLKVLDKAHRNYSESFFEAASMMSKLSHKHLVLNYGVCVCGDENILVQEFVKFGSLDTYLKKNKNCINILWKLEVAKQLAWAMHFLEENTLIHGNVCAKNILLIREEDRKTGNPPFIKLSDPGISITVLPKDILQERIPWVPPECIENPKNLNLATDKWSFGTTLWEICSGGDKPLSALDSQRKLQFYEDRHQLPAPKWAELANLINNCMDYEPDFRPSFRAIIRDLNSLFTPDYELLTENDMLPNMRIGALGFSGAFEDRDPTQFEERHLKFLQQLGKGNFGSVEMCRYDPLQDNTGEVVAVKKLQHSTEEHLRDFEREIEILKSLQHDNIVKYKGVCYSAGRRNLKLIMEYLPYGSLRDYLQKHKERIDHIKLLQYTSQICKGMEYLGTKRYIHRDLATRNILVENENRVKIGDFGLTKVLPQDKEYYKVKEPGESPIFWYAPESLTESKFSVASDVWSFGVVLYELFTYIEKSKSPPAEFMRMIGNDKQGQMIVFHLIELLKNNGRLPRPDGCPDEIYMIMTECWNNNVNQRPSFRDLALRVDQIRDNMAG

[5] = molecular target: Mitogen-activated protein kinase kinase kinase 9 (Homo sapiens) (UniProt P80192); assay: Inhibition of wild-type human partial length MLK1 (V88 to W426 residues) expressed in bacterial expression system at 1 uM by Kinomescan method relative to control
[6] = molecular target: Serine/threonine-protein kinase 32B (Homo sapiens) (UniProt Q9NY57); assay: Inhibition of wild-type human full length YANK2 (M1 to S414 residues) expressed in bacterial expression system at 1 uM by Kinomescan method relative to control
[7] = molecular target: Ribosomal protein S6 kinase alpha-4 (Homo sapiens) (UniProt O75676); assay: Inhibition of wild-type human partial length N-terminal RPS6KA4 kinase domain 1 expressed in bacterial expression system at 1 uM by Kinomescan method relative to control
[8] = molecular target: RAF proto-oncogene serine/threonine-protein kinase (Homo sapiens) (UniProt P04049); assay: Inhibition of wild-type human partial length RAF1 (I330 to T640 residues) expressed in bacterial expression system at 1 uM by Kinomescan method relative to control
[9] = molecular target: Mitogen-activated protein kinase kinase kinase kinase 3 (Homo sapiens) (UniProt Q8IVH8); assay: Inhibition of wild-type human partial length MAP4K3 (M1 to D301 residues) expressed in bacterial expression system at 1 uM by Kinomescan method relative to control
[10] = molecular target: Mitogen-activated protein kinase 15 (Homo sapiens) (UniProt Q8TD08); assay: Inhibition of wild-type human partial length ERK8 (M1 to P437 residues) expressed in bacterial expression system at 10 uM by Kinomescan method relative to control
[11] = molecular target: Serine/threonine-protein kinase LATS1 (Homo sapiens) (UniProt O95835); assay: Inhibition of wild-type human partial length LATS1 (Q678 to V1130 residues) expressed in bacterial expression system at 10 uM by Kinomescan method relative to control
[12] = tested on: Tyrosine-protein kinase ABL1 (Homo sapiens), P00519 [Q252H]; assay: Inhibition of human phosphorylated ABL1 Q252H mutant expressed in mammalian expression system at 10 uM by Kinomescan method relative to control
[13] = molecular target: Death-associated protein kinase 1 (Homo sapiens) (UniProt P53355); assay: Inhibition of wild-type human partial length DAPK1 (M1 to F296 residues) expressed in bacterial expression system at 10 uM by Kinomescan method relative to control
[14] = molecular target: Cyclin-dependent kinase 11B (Homo sapiens) (UniProt P21127); assay: Inhibition of wild-type human partial length CDC2L1 (P353 to G692 residues) expressed in bacterial expression system at 10 uM by Kinomescan method relative to control
[15] = molecular target: Tyrosine-protein kinase Mer (Homo sapiens) (UniProt Q12866); assay: Inhibition of wild-type human partial length MERTK (R557 to L884 residues) expressed in bacterial expression system at 10 uM by Kinomescan method relative to control
[16] = molecular target: 5'-AMP-activated protein kinase catalytic subunit alpha-2 (Homo sapiens) (UniProt P54646); assay: Inhibition of wild-type human partial length AMPK alpha2 (M1 to E306 residues) expressed in bacterial expression system at 10 uM by Kinomescan method relative to control
[17] = molecular target: Aurora kinase A (Homo sapiens) (UniProt O14965); assay: Inhibition of wild-type human partial length AURKA (E122 to K401 residues) expressed in mammalian expression system at 10 uM by Kinomescan method relative to control
[18] = molecular target: Tyrosine-protein kinase receptor UFO (Homo sapiens) (UniProt P30530); assay: Inhibition of wild-type human partial length AXL (R497 to Y821 residues) expressed in bacterial expression system at 10 uM by Kinomescan method relative to control
[19] = molecular target: Dual specificity mitogen-activated protein kinase kinase 4 (Homo sapiens) (UniProt P45985); assay: Inhibition of wild-type human partial length MEK4 (S84 to D399 residues) expressed in mammalian expression system at 10 uM by Kinomescan method relative to control
[20] = molecular target: Ephrin type-B receptor 4 (Homo sapiens) (UniProt P54760); assay: Inhibition of wild-type human partial length EPHB4 (H585 to G892 residues) expressed in bacterial expression system at 10 uM by Kinomescan method relative to control
[21] = molecular target: Dual specificity tyrosine-phosphorylation-regulated kinase 2 (Homo sapiens) (UniProt Q92630); assay: Inhibition of wild-type human full length DYRK2 (M1 to S528 residues) expressed in mammalian expression system at 10 uM by Kinomescan method relative to control
[22] = molecular target: Wee1-like protein kinase (Homo sapiens) (UniProt P30291); assay: Inhibition of wild-type human partial length WEE1 (M291 to K575 residues) expressed in bacterial expression system at 10 uM by Kinomescan method relative to control
[23] = molecular target: Casein kinase I isoform alpha (Homo sapiens) (UniProt P48729); assay: Inhibition of wild-type human partial length CSNK1A1 (M1 to L450 residues) expressed in mammalian expression system at 10 uM by Kinomescan method relative to control
Chain of Casein kinase I isoform alpha (Homo sapiens) (P48729 2-337 limits assumed): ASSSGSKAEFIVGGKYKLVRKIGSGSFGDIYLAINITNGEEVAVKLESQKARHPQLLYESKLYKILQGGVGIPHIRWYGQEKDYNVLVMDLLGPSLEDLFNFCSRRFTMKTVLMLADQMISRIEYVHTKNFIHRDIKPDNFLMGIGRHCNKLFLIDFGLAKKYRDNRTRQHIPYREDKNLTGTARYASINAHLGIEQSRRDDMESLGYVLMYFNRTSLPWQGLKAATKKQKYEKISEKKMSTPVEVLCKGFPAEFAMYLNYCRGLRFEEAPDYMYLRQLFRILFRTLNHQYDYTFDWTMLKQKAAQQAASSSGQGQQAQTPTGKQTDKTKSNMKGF

[24] = molecular target: Serine/threonine-protein kinase DCLK3 (Homo sapiens) (UniProt Q9C098); assay: Inhibition of wild-type human partial length DCAMKL3 (E140 to V628 residues) expressed in bacterial expression system at 10 uM by Kinomescan method relative to control
Chain of Serine/threonine-protein kinase DCLK3 (Homo sapiens) (Q9C098 whole entry, the tested form may be a part): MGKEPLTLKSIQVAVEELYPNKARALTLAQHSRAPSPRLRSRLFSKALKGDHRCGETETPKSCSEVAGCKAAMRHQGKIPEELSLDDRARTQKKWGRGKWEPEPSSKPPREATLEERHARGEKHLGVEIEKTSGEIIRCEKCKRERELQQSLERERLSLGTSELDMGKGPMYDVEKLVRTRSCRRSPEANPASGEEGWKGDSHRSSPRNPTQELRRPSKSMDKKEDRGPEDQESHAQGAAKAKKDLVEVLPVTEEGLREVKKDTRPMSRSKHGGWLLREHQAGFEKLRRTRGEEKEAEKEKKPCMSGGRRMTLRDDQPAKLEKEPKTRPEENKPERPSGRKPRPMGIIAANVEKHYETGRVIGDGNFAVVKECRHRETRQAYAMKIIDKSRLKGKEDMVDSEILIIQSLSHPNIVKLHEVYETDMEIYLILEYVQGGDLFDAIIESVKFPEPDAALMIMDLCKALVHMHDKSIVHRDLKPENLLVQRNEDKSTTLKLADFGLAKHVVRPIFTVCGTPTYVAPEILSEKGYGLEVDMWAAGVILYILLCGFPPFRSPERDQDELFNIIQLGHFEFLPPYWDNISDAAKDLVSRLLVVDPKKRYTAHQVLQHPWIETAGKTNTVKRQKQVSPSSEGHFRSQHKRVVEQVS

[25] = molecular target: Tyrosine-protein kinase Lck (Homo sapiens) (UniProt P06239); assay: Inhibition of wild-type human partial length LCK (R207 to P509 residues) expressed in bacterial expression system at 10 uM by Kinomescan method relative to control
[26] = molecular target: Tyrosine-protein kinase Srms (Homo sapiens) (UniProt Q9H3Y6); assay: Inhibition of wild-type human partial length SRMS (L208 to P488 residues) expressed in mammalian expression system at 10 uM by Kinomescan method relative to control
Chain of Tyrosine-protein kinase Srms (Homo sapiens) (Q9H3Y6 whole entry, the tested form may be a part): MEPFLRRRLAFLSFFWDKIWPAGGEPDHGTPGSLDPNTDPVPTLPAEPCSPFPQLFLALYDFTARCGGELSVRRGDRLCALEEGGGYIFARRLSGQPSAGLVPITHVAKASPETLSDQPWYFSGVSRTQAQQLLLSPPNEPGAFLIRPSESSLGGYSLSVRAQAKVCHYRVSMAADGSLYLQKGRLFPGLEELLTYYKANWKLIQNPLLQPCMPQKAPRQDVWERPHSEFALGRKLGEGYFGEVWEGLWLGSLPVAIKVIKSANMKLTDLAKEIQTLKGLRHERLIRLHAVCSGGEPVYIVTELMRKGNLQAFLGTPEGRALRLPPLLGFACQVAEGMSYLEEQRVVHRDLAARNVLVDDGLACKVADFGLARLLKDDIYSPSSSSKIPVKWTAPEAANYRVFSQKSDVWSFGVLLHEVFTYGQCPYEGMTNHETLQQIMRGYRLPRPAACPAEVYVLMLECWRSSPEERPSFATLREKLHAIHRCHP

[27] = molecular target: Tyrosine-protein kinase Lyn (Homo sapiens) (UniProt P07948); assay: Inhibition of wild-type human partial length LYN (C219 to Q511 residues) expressed in bacterial expression system at 10 uM by Kinomescan method relative to control
Chain of Tyrosine-protein kinase Lyn (Homo sapiens) (P07948 2-512 limits assumed): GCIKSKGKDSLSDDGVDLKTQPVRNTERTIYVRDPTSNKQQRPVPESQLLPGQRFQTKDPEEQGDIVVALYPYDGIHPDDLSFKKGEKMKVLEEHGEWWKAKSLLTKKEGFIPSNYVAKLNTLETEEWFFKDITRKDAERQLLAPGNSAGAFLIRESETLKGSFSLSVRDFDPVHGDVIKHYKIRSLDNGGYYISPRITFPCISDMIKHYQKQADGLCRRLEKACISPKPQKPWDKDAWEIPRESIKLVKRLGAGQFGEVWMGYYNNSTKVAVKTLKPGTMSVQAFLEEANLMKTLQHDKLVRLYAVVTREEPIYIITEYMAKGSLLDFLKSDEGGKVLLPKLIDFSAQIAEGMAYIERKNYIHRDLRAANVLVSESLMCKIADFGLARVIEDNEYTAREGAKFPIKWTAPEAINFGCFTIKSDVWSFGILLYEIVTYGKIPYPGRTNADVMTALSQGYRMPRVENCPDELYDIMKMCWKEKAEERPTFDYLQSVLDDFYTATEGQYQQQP

Chain of Dual specificity protein kinase CLK3 (Homo sapiens) (P49761 whole entry, looked up, the tested form may be a part): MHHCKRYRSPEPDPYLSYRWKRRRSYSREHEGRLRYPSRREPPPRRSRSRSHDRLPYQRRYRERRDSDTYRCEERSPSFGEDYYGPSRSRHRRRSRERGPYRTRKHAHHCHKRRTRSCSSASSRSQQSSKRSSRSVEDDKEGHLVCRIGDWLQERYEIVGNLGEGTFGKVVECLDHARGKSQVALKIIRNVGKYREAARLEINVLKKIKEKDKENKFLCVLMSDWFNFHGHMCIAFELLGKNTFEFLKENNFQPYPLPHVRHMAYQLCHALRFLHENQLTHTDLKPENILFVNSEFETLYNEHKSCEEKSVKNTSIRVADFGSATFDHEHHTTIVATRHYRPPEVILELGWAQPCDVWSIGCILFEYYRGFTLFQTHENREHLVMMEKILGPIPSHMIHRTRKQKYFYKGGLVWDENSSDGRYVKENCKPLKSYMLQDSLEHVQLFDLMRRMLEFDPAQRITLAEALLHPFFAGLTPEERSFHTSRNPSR

O=C(Nc1cccc([C@@H]2CN(c3ncnc4[nH]ccc34)CCN2CCO)c1)Nc1c(F)cccc1N1CCCC1
inhibition [1]: 94% | inhibition [2]: 98% | inhibition [3]: 93% | inhibition [4]: 0% | inhibition [5]: 86% | inhibition [6]: 100% | inhibition [7]: 94% | inhibition [8]: 86% | inhibition [9]: 71%

O=C(Nc1cccc([C@H]2CCCN(c3ncnc4[nH]ccc34)C2)c1)Nc1ccccc1N1CCCC1
inhibition [10]: 99% | inhibition [11]: 14% | inhibition [12]: 83% | inhibition [13]: 4% | inhibition [14]: 58% | inhibition [15]: 31% | inhibition [16]: 4.7% | inhibition [17]: 0.8% | inhibition [18]: 16% | inhibition [19]: 1.6% | inhibition [20]: 98% | inhibition [21]: 78% | inhibition [22]: 100% | inhibition [23]: 62% | inhibition [24]: 100% | inhibition [25]: 48% | inhibition [26]: 65% | inhibition [27]: 66%
